# Measurements reported in patent publication US10633386B2, “BET protein degraders” (THE REGENTS OF THE UNIVERSITY OF MICHIGAN, priority 2016, dated 2020).
# Like-named read-outs stand apart in the source and are kept apart here.
# Columns and labels:
# CALU-1 = test: Cell growth inhibition (CellTiter-Glo), NSCLC line CALU-1; format: cell-based; conditions: CALU-1 non-small cell lung cancer cell line, 4 days
# Description: (§1) Cell growth inhibitory activity of representative BET bromodomain degraders in representative non-small cell lung cancer cell lines was determined using the CellTiter-Glo® Luminescent Cell Viability Assay. Cells were seeded in 384-well white opaque cell culture plates at a density of 2,000 cells/well with serially diluted compounds and incubated at 37° C. in an atmosphere of 95% air and 5% CO2 for 4 days. Cell viability was determined using the CellTiter-Glo® Luminescent Cell Viability Assay Kit (Promega, Madison, Wis.) according to the manufacture's instruction. Briefly, a volume of CellTiter-Glo® Reagent equal to the volume of cell culture medium was added to each well, and then the plates were incubated at room temperature for 10-20 minutes. The luminescent signal was measured using a Tecan Infinite M1000 multimode microplate reader (Tecan, Morrisville, N.C.). The half maximal inhibitory concentration (IC50) was calculated using the GraphPad Prism 5 software (GraphPad Software, La Jolla, Calif.). Cpd. A is a BET bromodomain inhibitor, see U.S. Appl.
# H2444 = test: Cell growth inhibition (CellTiter-Glo), NSCLC line H2444; format: cell-based; conditions: H2444 non-small cell lung cancer cell line, 4 days
# Description: as §1
# H2009 = test: Cell growth inhibition (CellTiter-Glo), NSCLC line H2009; format: cell-based; conditions: H2009 non-small cell lung cancer cell line, 4 days
# Description: as §1
# H2228 = test: Cell growth inhibition (CellTiter-Glo), NSCLC line H2228; format: cell-based; conditions: H2228 non-small cell lung cancer cell line, 4 days
# Description: as §1
# H647 = test: Cell growth inhibition (CellTiter-Glo), NSCLC line H647; format: cell-based; conditions: H647 non-small cell lung cancer cell line, 4 days
# Description: as §1
# H23 = test: Cell growth inhibition (CellTiter-Glo), NSCLC line H23; format: cell-based; conditions: H23 non-small cell lung cancer cell line, 4 days
# Description: as §1
# MDA-MB-468 = test: Cell growth inhibition (CellTiter-Glo), breast cancer line MDA-MB-468; format: cell-based; conditions: MDA-MB-468 breast cancer cell line, 4 days
# Description: (§2) Cell growth inhibitory activity of representative BET bromodomain degraders in representative breast cancer cell lines was determined using the CellTiter-Glo® Luminescent Cell Viability Assay. SUM-52 and SUM-159 cell lines were established at the University of Michigan Comprehensive Cancer Center. All the other breast cancer cell lines were obtained from the ATCC (Manassas, Va.). Cells were seeded in 384-well cell culture plates at a density of 1,000-2,500 cells/well with serially diluted compounds and incubated at 37° C. in an atmosphere of 95% air and 5% CO2 for 4 days. Cell viability was determined using the CellTiter-Glo® Luminescent Cell Viability Assay Kit (Promega, Madison, Wis.) according to the manufacture's instruction. Briefly, a volume of CellTiter-Glo® Reagent equal to the volume of cell culture medium was added to each well, and then the plates were incubated at room temperature for 20-60 minutes. The luminescent signal was measured using a Tecan Infinite M1000 multimode microplate reader (Tecan, Morrisville, N.C.). The half maximal inhibitory concentration (IC50) was calculated using the GraphPad Prism 5 software (GraphPad Software, La Jolla, Calif.). “Thd” is thalidomide.
# MDA-MB-453 = test: Cell growth inhibition (CellTiter-Glo), breast cancer line MDA-MB-453; format: cell-based; conditions: MDA-MB-453 breast cancer cell line, 4 days
# Description: as §2
# HCC1187 = test: Cell growth inhibition (CellTiter-Glo), breast cancer line HCC1187; format: cell-based; conditions: 4 days
# Description: as §2
# MDA-MB-231 = test: Cell growth inhibition (CellTiter-Glo), breast cancer line MDA-MB-231; format: cell-based, human; conditions: MDA-MB-231 breast cancer cell line, 4 days
# Description: as §2
# SUM-52 = test: Cell growth inhibition (CellTiter-Glo), breast cancer line SUM-52; format: cell-based; conditions: SUM-52 breast cancer cell line, 4 days
# Description: as §2
# HCC1937 = test: Cell growth inhibition (CellTiter-Glo), breast cancer line HCC1937; format: cell-based; conditions: 4 days
# Description: as §2
# BT-20 = test: Cell growth inhibition (CellTiter-Glo), breast cancer line BT-20; format: cell-based; conditions: BT-20 breast cancer cell line, 4 days
# Description: as §2
# Lovo = test: Cell growth inhibition (CellTiter-Glo), colon cancer line Lovo; format: cell-based
# Description: as §1, with “Appl. No. 62/121,637, having the following structure:” for “Appl.”
# (§3) Cell growth inhibitory activity of representative BET bromodomain degraders in representative colon cancer cell lines, see Table 7, was determined as described in Example 17.
# SKCO-1 = test: Cell growth inhibition (CellTiter-Glo), colon cancer line SKCO-1; format: cell-based; conditions: SKCO-1 colon cancer cell line
# Description: as §1, with “Appl. No. 62/121,637, having the following structure:” for “Appl.”
# as §3
# SW48 = test: Cell growth inhibition (CellTiter-Glo), colon cancer line SW48; format: cell-based
# Description: as §1, with “Appl. No. 62/121,637, having the following structure:” for “Appl.”
# as §3
# SW837 = test: Cell growth inhibition (CellTiter-Glo), colon cancer line SW837; format: cell-based
# Description: as §1, with “Appl. No. 62/121,637, having the following structure:” for “Appl.”
# as §3
# SW948 = test: Cell growth inhibition (CellTiter-Glo), colon cancer line SW948; format: cell-based
# Description: as §1, with “Appl. No. 62/121,637, having the following structure:” for “Appl.”
# as §3
# SW403 = test: Cell growth inhibition (CellTiter-Glo), colon cancer line SW403; format: cell-based
# Description: as §1, with “Appl. No. 62/121,637, having the following structure:” for “Appl.”
# as §3
# H508 = test: Cell growth inhibition (CellTiter-Glo), colon cancer line H508; format: cell-based
# Description: as §1, with “Appl. No. 62/121,637, having the following structure:” for “Appl.”
# as §3
# SW1463 = test: Cell growth inhibition (CellTiter-Glo), colon cancer line SW1463; format: cell-based
# Description: as §1, with “Appl. No. 62/121,637, having the following structure:” for “Appl.”
# as §3
# LS513 = test: Cell growth inhibition (CellTiter-Glo), colon cancer line LS513; format: cell-based
# Description: as §1, with “Appl. No. 62/121,637, having the following structure:” for “Appl.”
# as §3
# LS123 = test: Cell growth inhibition (CellTiter-Glo), colon cancer line LS123; format: cell-based
# Description: as §1, with “Appl. No. 62/121,637, having the following structure:” for “Appl.”
# as §3
smiles,measurement,setting,value
"CCn1nc(C2CC2)cc1Nc1nc(COC)nc2[nH]c3cc(-c4c(C)noc4C)c(OC)cc3c12 [Cpd. A, reference compound]",IC50,"CALU-1; Homo sapiens, 96 h",2520 nM
same,IC50,"H2444; Homo sapiens, NCI-H2444, 96 h",2720 nM
same,IC50,"H2009; Homo sapiens, NCI-H2009, 96 h",170 nM
same,IC50,"H2228; Homo sapiens, NCI-H2228, 96 h",2400 nM
same,IC50,"H647; Homo sapiens, NCI-H647, 96 h",80 nM
same,IC50,"H23; Homo sapiens, NCI-H23, 96 h",130 nM
same,IC50,"MDA-MB-468; Homo sapiens, 96 h",510 nM
same,IC50,"MDA-MB-453; Homo sapiens, 96 h",40 nM
same,IC50,"HCC1187; Homo sapiens, 96 h",960 nM
same,IC50,"MDA-MB-231; Homo sapiens, 96 h",220 nM
same,IC50,"SUM-52; SUM52, 96 h",390 nM
same,IC50,"HCC1937; Homo sapiens, 96 h",> 5000 nM
same,IC50,"BT-20; Homo sapiens, 96 h",2410 nM
same,IC50,Lovo; Homo sapiens,44 ± 17 nM
same,IC50,"SKCO-1; Homo sapiens, SK-CO-1",1080 ± 240 nM
same,IC50,SW48; Homo sapiens,45.7 nM
same,IC50,SW837; Homo sapiens,84 ± 20 nM
same,IC50,SW948; Homo sapiens,> 2500 nM
same,IC50,"SW403; Homo sapiens, SW-403",102 ± 23 nM
same,IC50,"H508; Homo sapiens, NCI-H508",167 ± 90 nM
same,IC50,SW1463; Homo sapiens,> 2500 nM
same,IC50,"LS513; Homo sapiens, LS-513",915 ± 670 nM
same,IC50,"LS123; Homo sapiens, LS-123",739 ± 680 nM
CCn1nc(C2CC2)cc1Nc1nc(C(=O)NCCCOCCOCCOCCCNc2cccc3c2C(=O)N(C2CCC(=O)NC2=O)C3=O)nc2[nH]c3cc(-c4c(C)noc4C)c(OC)cc3c12 (stereo not shown) [Cpd. No. 4],IC50,"CALU-1; Homo sapiens, 96 h",2 nM
same,IC50,"H2444; Homo sapiens, NCI-H2444, 96 h",4 nM
same,IC50,"H2009; Homo sapiens, NCI-H2009, 96 h",16 nM
same,IC50,"H2228; Homo sapiens, NCI-H2228, 96 h",174 nM
same,IC50,"H647; Homo sapiens, NCI-H647, 96 h",598 nM
same,IC50,"H23; Homo sapiens, NCI-H23, 96 h",612 nM
same,IC50,"MDA-MB-468; Homo sapiens, 96 h",2 nM
same,IC50,"MDA-MB-453; Homo sapiens, 96 h",2 nM
same,IC50,"HCC1187; Homo sapiens, 96 h",3 nM
same,IC50,"MDA-MB-231; Homo sapiens, 96 h",4 nM
same,IC50,"SUM-52; SUM52, 96 h",8 nM
same,IC50,"HCC1937; Homo sapiens, 96 h",8 nM
same,IC50,"BT-20; Homo sapiens, 96 h",25 nM
same,IC50,Lovo; Homo sapiens,13 ± 14 nM
same,IC50,"SKCO-1; Homo sapiens, SK-CO-1",8 ± 4 nM
same,IC50,SW48; Homo sapiens,6 nM
same,IC50,SW837; Homo sapiens,76 ± 30 nM
same,IC50,SW948; Homo sapiens,197 ± 160 nM
same,IC50,"SW403; Homo sapiens, SW-403",42 ± 10 nM
same,IC50,"H508; Homo sapiens, NCI-H508",54 ± 30 nM
same,IC50,SW1463; Homo sapiens,31 ± 10 nM
same,IC50,"LS513; Homo sapiens, LS-513",70 ± 20 nM
same,IC50,"LS123; Homo sapiens, LS-123",11 ± 10 nM
CCn1nc(C2CC2)cc1Nc1nc(C(=O)NCCCCNc2cccc3c2C(=O)N(C2CCC(=O)NC2=O)C3=O)nc2[nH]c3cc(-c4c(C)noc4C)c(OC)cc3c12 (stereo not shown) [Cpd. No. 9],IC50,"CALU-1; Homo sapiens, 96 h",9 nM
same,IC50,"H2444; Homo sapiens, NCI-H2444, 96 h",28 nM
same,IC50,"H2009; Homo sapiens, NCI-H2009, 96 h",34 nM
same,IC50,"H2228; Homo sapiens, NCI-H2228, 96 h",610 nM
same,IC50,"H647; Homo sapiens, NCI-H647, 96 h",789 nM
same,IC50,"H23; Homo sapiens, NCI-H23, 96 h",3070 nM
same,IC50,Lovo; Homo sapiens,46 ± 49 nM
same,IC50,"SKCO-1; Homo sapiens, SK-CO-1",23 ± 10 nM
same,IC50,SW48; Homo sapiens,8 nM
same,IC50,SW837; Homo sapiens,230 ± 67 nM
same,IC50,SW948; Homo sapiens,1000 ± 1070 nM
same,IC50,"SW403; Homo sapiens, SW-403",219 ± 190 nM
same,IC50,"H508; Homo sapiens, NCI-H508",410 ± 150 nM
same,IC50,SW1463; Homo sapiens,191 ± 30 nM
same,IC50,"LS513; Homo sapiens, LS-513",185 ± 60 nM
same,IC50,"LS123; Homo sapiens, LS-123",74 ± 50 nM
"Cc1sc2c(c1C)C(c1ccc(Cl)cc1)=N[C@@H](CC(=O)NCCCCNC(=O)COc1cccc3c1C(=O)N(C1CCC(=O)NC1=O)C3=O)c1nnc(C)n1-2 (stereo partly shown) [dBET1, reference compound]",IC50,CALU-1,3100 nM
same,IC50,H2444,3000 nM
same,IC50,H2009,> 5000 nM
same,IC50,H2228,> 5000 nM
same,IC50,H647,> 5000 nM
same,IC50,H23,> 5000 nM
same,IC50,MDA-MB-468,1390 nM
same,IC50,MDA-MB-453,> 5000 nM
same,IC50,HCC1187,> 5000 nM
same,IC50,MDA-MB-231,1830 nM
same,IC50,SUM-52,> 5000 nM
same,IC50,HCC1937,> 5000 nM
same,IC50,BT-20,> 5000 nM
same,IC50,Lovo,> 5000 nM
same,IC50,SKCO-1,> 5000 nM
same,IC50,SW48,2780 nM
same,IC50,SW837,> 5000 nM
same,IC50,SW948,> 5000 nM
same,IC50,SW403,> 5000 nM
same,IC50,H508,> 5000 nM
same,IC50,SW1463,2730 ± 300 nM
same,IC50,LS513,> 5000 nM
same,IC50,LS123,> 5000 nM
